The text below walks through data of US20200239530A1, “COMPOUNDS AND METHODS OF MODULATING PROTEIN DEGRADATION” (Vividion Therapeutics, Inc., priority 2017, published 2020).

Like-named read-outs stand apart in the source and are kept apart here.

Holding throughout (assay): Competitive cysteine profiling, probe competition (Table 2B)
What all share (type): binding

In one test the target is T1, Q96Q07 (Homo sapiens, UniProt Q96Q07).
T1 construct: 200 μL of lysate containing 5 mg/ml proteome was treated with 2 μL of 100× compound stock; endogenous in cells
T1 sequence (Q96Q07 1-612): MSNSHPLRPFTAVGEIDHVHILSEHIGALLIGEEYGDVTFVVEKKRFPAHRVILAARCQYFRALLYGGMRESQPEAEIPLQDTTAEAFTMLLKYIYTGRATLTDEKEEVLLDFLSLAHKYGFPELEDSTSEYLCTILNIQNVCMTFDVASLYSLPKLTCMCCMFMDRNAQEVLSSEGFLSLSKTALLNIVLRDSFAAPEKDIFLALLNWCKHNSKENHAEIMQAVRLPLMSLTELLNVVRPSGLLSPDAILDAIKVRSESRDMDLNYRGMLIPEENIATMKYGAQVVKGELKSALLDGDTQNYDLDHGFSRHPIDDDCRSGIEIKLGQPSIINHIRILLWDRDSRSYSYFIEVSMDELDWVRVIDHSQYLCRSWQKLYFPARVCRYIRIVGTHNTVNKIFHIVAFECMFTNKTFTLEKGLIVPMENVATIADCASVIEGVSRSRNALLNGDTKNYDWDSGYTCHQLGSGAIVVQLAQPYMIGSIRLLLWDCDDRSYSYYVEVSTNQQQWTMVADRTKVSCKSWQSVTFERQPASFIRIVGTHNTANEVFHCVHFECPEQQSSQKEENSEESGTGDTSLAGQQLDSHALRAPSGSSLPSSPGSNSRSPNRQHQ
The text has this:
(§1) The following 96-well sample prep protocol was used for sample preparation.

The target of the next test is T2, Q9C0C7 (Homo sapiens, UniProt Q9C0C7).
T2 construct: Cells were resuspended in cold PBS on ice and sonicated with a probe sonicator to achieve lysis; endogenous in cells
T2 sequence (Q9C0C7 1-1298): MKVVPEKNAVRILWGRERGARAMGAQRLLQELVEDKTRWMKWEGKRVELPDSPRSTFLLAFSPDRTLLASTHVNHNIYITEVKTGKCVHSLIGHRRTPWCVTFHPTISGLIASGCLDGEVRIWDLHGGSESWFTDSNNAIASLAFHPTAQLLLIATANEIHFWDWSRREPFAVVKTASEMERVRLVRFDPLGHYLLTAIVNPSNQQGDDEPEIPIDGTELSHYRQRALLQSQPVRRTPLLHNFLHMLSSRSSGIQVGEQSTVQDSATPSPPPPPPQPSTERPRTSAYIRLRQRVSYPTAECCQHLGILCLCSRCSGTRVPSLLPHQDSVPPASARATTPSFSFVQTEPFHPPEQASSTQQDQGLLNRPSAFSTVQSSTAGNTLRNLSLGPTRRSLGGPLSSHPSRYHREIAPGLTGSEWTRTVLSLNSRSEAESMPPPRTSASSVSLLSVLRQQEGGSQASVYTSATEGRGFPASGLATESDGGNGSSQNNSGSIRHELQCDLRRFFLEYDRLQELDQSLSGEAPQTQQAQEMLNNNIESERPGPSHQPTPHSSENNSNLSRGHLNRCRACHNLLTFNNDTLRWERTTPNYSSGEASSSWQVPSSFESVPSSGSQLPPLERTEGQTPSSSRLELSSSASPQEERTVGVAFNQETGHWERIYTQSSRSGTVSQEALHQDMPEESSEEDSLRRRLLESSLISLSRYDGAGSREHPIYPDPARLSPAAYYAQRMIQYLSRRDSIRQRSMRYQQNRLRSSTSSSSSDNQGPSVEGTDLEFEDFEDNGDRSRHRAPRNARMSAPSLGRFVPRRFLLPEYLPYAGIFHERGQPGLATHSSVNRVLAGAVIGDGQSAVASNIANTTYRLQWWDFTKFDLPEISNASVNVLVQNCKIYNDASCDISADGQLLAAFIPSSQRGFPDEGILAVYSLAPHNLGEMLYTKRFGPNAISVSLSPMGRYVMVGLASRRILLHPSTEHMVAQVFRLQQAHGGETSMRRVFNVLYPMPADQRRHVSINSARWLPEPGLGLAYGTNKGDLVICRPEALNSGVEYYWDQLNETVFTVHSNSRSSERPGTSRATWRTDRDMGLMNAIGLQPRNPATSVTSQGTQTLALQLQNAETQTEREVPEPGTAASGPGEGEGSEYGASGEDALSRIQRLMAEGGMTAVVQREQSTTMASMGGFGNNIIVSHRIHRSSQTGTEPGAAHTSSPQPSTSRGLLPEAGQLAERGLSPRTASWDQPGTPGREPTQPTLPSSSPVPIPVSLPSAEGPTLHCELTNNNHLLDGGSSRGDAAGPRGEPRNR
Excerpt: as §1

The next test has as its target T3, Q9UJX4 (Homo sapiens, UniProt Q9UJX4).
T3 construct: Cells were resuspended in cold PBS on ice and sonicated with a probe sonicator to achieve lysis; endogenous in cells
Excerpt: as §1

T3 sequence (Q9UJX4 whole entry): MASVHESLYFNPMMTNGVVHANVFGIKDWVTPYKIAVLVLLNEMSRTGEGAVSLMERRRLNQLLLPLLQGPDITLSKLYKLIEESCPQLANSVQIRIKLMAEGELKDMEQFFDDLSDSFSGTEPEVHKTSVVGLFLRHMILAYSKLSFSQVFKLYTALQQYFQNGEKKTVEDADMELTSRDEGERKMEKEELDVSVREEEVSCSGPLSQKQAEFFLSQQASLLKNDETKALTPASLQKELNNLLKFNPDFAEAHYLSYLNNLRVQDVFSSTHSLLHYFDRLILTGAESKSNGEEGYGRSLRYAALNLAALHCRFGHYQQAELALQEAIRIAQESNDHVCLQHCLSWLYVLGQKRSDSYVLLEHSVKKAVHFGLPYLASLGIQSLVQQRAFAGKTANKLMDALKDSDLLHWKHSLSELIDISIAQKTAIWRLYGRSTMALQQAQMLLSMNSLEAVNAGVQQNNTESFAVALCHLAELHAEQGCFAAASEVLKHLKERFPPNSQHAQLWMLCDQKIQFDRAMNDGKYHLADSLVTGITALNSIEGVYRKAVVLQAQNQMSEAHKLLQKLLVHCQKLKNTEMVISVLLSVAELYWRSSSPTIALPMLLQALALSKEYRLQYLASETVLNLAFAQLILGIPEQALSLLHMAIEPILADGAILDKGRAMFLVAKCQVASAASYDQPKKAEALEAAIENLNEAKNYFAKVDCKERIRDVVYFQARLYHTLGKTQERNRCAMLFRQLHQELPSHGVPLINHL

With `COc1ccc2c(c1)CCCN2C(=O)CCl` [KB02], the “KB02_500 uM_percent_inhibition” value on Q96Q07 (500 uM) is listed as 45%. For the same molecule, the inhibition at 500 µM at Q96Q07 (read-out: KB02_500 uM_percent_inhibition) stood at 54%. The “KB02_100 uM_percent_inhibition” value at Q9C0C7 (100 uM) amounted to 49%. Further, the inhibition at 100 µM at Q9C0C7 (read-out: KB02_100 uM_percent_inhibition) is 48%.

For `C=CC(=O)N(c1ccccc1)c1ccc(Br)cc1` [KB05], the inhibition at 500 µM on Q96Q07 (read-out: KB05_500 uM_percent_inhibition) is 65%; at Q9UJX4 (500 uM, read-out: KB05_500 uM_percent_inhibition), 74%. Moreover, the “KB05_100 uM_percent_inhibition” value at Q9C0C7 (100 uM) was 25%. Further, the inhibition at 100 µM is 23% at Q9C0C7 (read-out: KB05_100 uM_percent_inhibition) and 9% on Q9UJX4 (100 uM, read-out: KB05_100 uM_percent_inhibition).

In the case of `O=C(CCl)Nc1cc(C(F)(F)F)cc(C(F)(F)F)c1` [KBO3], on Q9UJX4 (100 uM), the “KB03_100 uM_percent_inhibition” value came out at 31%.
